Assays:
[1] = target: T1, human cloned CHRM2 receptor (Homo sapiens, UniProt P08172); test: CHRM2 Ca++ Flux Assay (M2_CHO cells, agonist mode); assay type: cell-based; conditions: M2 CHO cells; for EC50: agonist mode, geometric mean if tested more than once, read-out: M2 FDSS EC50; for Emax: Percent Activity (PA) measured to EC100 of Carbachol, read-out: M2 FDSS PA %
T1 construct: expressed in transfected cells; host or cells: CHO-K1 (M2_CHO)
T1 sequence (P08172 1-466): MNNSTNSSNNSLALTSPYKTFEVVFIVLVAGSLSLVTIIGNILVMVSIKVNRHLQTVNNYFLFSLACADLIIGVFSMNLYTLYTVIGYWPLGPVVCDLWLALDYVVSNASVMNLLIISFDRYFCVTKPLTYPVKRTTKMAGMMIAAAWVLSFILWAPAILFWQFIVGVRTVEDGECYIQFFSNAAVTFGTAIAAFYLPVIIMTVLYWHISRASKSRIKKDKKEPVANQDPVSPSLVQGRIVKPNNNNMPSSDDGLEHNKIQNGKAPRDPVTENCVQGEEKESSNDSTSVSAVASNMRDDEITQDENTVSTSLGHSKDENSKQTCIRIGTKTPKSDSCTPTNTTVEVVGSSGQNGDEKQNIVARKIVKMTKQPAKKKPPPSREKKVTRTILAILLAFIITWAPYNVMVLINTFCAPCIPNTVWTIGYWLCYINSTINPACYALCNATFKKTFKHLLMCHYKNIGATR
In short: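 CHO-K1 cells stably expressing human CHRM2 were plated overnight at 12K cells/well and loaded with Ca++ dye for 1–2 h. They were then held 60 minutes in HBSS −Ca/−Mg, 20 mM HEPES, 2.5 mM probenecid, 20 μM ATP. Agonist-mode Ca++ flux was read over 3 minutes. Four-parameter fits of triplicates gave percent activity relative to carbachol EC100.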

[2] = target: T2, human cloned CHRM4 receptor (Homo sapiens, UniProt P08173); test: CHRM4 Ca++ Flux Assay (M4_CHO cells, agonist mode); assay type: cell-based; conditions: for Emax: Percent Activity (PA), read-out: M4 FDSS PA %; for EC50: geometric mean if tested more than once, read-out: M4 FDSS EC50
T2 construct: expressed in transfected cells; host or cells: CHO-K1 (M4_CHO)
T2 sequence (P08173 1-479): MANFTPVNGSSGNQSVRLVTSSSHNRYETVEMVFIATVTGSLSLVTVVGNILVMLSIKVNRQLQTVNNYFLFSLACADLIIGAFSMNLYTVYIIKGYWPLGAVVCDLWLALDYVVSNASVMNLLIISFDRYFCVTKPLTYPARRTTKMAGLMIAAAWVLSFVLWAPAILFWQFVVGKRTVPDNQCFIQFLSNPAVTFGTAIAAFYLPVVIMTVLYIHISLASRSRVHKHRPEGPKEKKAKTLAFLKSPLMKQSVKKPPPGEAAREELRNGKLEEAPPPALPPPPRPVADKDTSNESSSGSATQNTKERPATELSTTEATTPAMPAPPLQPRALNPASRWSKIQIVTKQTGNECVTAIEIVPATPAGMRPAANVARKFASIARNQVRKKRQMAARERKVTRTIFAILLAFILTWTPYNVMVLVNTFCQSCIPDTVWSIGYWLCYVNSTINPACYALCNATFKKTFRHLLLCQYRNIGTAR
In short: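 CHO-K1 cells stably expressing human M4 were dye-loaded, then held 60 min at RT in Ca/Mg-free HBSS buffer with 20 μM ATP. Ca++ traces were recorded over 3 min after an 11-point compound series in triplicate, agonist mode, with a four-parameter fit. Percent activity is relative to the carbachol EC100; repeat tests are geometric means.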

| Compound | EC50 [1] [µM] | Emax [1] [%] | Emax [2] [%] | EC50 [2] [nM] |
| --- | --- | --- | --- | --- |
| COCCOc1ccc(F)cc1C1CCN([C@@H]2COC3(C2)CN(c2nncs2)C3)CC1 [Example 5S, (S)-7-(4-(5-fluoro-2-(2-methoxyethoxy)phenyl)piperidin-1-yl)-2-(1,3,4-thiadiazol-2-yl)-5-oxa-2-azaspiro[3.4]octane] | 4.6 | 23 | 69 | 197 |
| COc1cc(F)ccc1C1CCN([C@@H]2COC3(C2)CN(c2nncs2)C3)CC1 [Example 5T, (S)-7-(4-(4-fluoro-2-methoxyphenyl)piperidin-1-yl)-2-(1,3,4-thiadiazol-2-yl)-5-oxa-2-azaspiro[3.4]octane] | 20 | 35 | 61 | 208 |
| CC(C)(O)COc1ccc(F)cc1C1CCN([C@@H]2COC3(C2)CN(c2nncs2)C3)CC1 [Example 5U, (S)-1-(2-(1-(2-(1,3,4-thiadiazol-2-yl)-5-oxa-2-azaspiro[3.4]octan-7-yl)piperidin-4-yl)-4-fluorophenoxy)-2-methylpropan-2-ol] | 0.483 | 17 | 67 | 238 |
